The experiment has as its target T1, memapsin 2 (Cricetulus griseus, UniProt G3IAK4).
T1 construct: endogenous in cells; host or cells: Chinese hamster ovary cells over-expressing human APP695 (London + Swedish)
The experiment is described as follows: Cellular Aβ IC50 determination (Aβ40 sandwich ELISA). It counts as cell-based. The note with it: Chinese hamster ovary cells over-expressing human APP695 with London and Swedish mutations, 24 h. As to the method:
The potency of compounds against memapsin 2 activity was determined in a cellular assay of Aβ production. […] Chinese hamster ovary cells that over-express human APP695 with the London and Swedish mutations were seeded in multi-well plates at 10% confluency. Compounds were dissolved in DMSO to concentrations near 1 mM, and diluted into culture media to a final concentration near 4 μM (final 0.4% DMSO). Compounds were diluted serially and applied to cells in multi-well plates 48 h after seeding. Incubation was continued in 5% CO2 at 37 degrees C. for 24 h. Aliquots were removed and assayed for Aβ40 content using a sandwich ELISA (BioSource International). Amount of Aβ40 over the range of concentration of compounds, relative to control incubations, were fit to a 4-parameter IC50 model.
For orientation: An ELISA detects its analyte on a solid surface through an enzyme-linked reagent.
T1 sequence (G3IAK4 22-501): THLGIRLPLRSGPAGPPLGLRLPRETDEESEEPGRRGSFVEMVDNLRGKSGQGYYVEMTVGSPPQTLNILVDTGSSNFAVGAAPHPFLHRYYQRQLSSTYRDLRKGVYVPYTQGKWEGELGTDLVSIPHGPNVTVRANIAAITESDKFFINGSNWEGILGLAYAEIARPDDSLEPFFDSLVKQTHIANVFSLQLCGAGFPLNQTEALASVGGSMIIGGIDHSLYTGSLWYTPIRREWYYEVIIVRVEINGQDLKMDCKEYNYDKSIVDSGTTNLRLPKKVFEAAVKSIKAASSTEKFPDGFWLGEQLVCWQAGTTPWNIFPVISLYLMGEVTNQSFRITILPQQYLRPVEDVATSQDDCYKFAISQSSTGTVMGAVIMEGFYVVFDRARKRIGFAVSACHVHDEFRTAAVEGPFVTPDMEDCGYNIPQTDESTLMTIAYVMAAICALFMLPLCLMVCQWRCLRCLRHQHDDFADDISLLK
Broadly, the IC50 is the concentration that inhibits the measured activity by half. High values mean weaker potency in that assay, low ones greater potency in that assay. `Cc1csc(COC(=O)N[C@@H](CNS(C)(=O)=O)C(=O)N[C@@H](CC(C)C)[C@@H](O)C[C@@H](C)C(=O)N[C@H](C(=O)NCC(C)C)C(C)C)n1` registered an IC50 of over 100 µM.

Regarding `Cc1csc(COC(=O)N[C@@H](CNC(=O)OC(C)(C)C)C(=O)N[C@@H](CC(C)C)[C@@H](O)C[C@@H](C)C(=O)N[C@H](C(=O)NCC(C)C)C(C)C)n1`, the half-inhibitory concentration (IC50) is over 100 µM. As for `COC(=O)NC[C@H](NC(=O)OCc1nc(C)cs1)C(=O)N[C@@H](CC(C)C)[C@@H](O)C[C@@H](C)C(=O)N[C@H](C(=O)NCC(C)C)C(C)C`, the 50% inhibitory concentration (IC50) is under 6 µM. `Cc1csc(COC(=O)N[C@@H](CNC(=O)O[C@H]2CCOC2)C(=O)N[C@@H](CC(C)C)[C@@H](O)C[C@@H](C)C(=O)N[C@H](C(=O)NCC(C)C)C(C)C)n1` had a concentration for half-maximal inhibition (IC50) of 6 to 100 µM. Regarding `CCC(Cn1nc(C)cc1C)C(=O)NC(CNC(=O)OCCF)C(=O)NC(CC(C)C)C(O)CC(C)C(=O)NC(C(=O)NCC(C)C)C(C)C` (centres unmarked) [2-fluoroethyl 2-(2-((3,5-dimethyl-1H-pyrazol-1-yl)methyl)butanamido)-3-(5-hydroxy-8-(1-(isobutylamino)-3-methyl-1-oxobutan-2-ylamino)-2,7-dimethyl-8-oxooctan-4-ylamino)-3-oxopropylcarbamate], the half-maximal inhibitory concentration (IC50) lay within 6 to 100 µM. Compound `COCCOC(=O)NCC(NC(=O)C(C)Cc1nc(C)cs1)C(=O)NC(CC(C)C)C(O)CC(C)C(=O)NC(C(=O)NCC(C)C)C(C)C` (centres unmarked) [2-methoxyethyl 3-(5-hydroxy-8-(1-(isobutylamino)-3-methyl-1-oxobutan-2-ylamino)-2,7-dimethyl-8-oxooctan-4-ylamino)-2-(2-methyl-3-(4-methylthiazol-2-yl)propanamido)-3-oxopropylcarbamate] displayed a half-inhibitory concentration (IC50) of under 6 µM. Consider `Cc1csc(CC(C)C(=O)NC(CN(C)S(C)(=O)=O)C(=O)NC(CC(C)C)C(O)CC(C)C(=O)NC(C(=O)NCC(C)C)C(C)C)n1` (centres unmarked) [4-hydroxy-N-(1-(isobutylamino)-3-methyl-1-oxobutan-2-yl)-2,7-dimethyl-5-(2-(2-methyl-3-(4-methylthiazol-2-yl)propanamido)-3-(N-methylmethylsulfonamido)propanamido)octanamide], for which the IC50 fell in the range of 6 to 100 µM. With `CCC(Cc1nc(C)cs1)C(=O)NC(CN(C)OC)C(=O)NC(CC(C)C)C(O)CC(C)C(=O)NC(C(=O)NCC(C)C)C(C)C` (centres unmarked) [4-hydroxy-N-(1-(isobutylamino)-3-methyl-1-oxobutan-2-yl)-5-(3-(methoxy(methyl)amino)-2-(2-((4-methylthiazol-2-yl)methyl)butanamido)propanamido)-2,7-dimethyloctanamide], the 50% inhibitory concentration (IC50) was over 100 µM.

`Cc1csc(CC(C)C(=O)NC(CNS(C)(=O)=O)C(=O)NC(CC(C)C)C(O)CC(C)C(=O)NC(C(=O)NCC(C)C)C(C)C)n1` (centres unmarked) [4-hydroxy-N-(1-(isobutylamino)-3-methyl-1-oxobutan-2-yl)propanamido)-3-(methylsulfonamido)propanamido)octanamide] yielded an IC50 of under 6 µM. Regarding `CC(=O)NCC(NC(=O)C(C)Cc1nc(C)cs1)C(=O)NC(CC(C)C)C(O)CC(C)C(=O)NC(C(=O)NCC(C)C)C(C)C` (centres unmarked) [5-(3-acetamido-2-(2-methyl-3-(4-methylthiazol-2-yl)propanamido)propanamido)-4-hydroxy-N-(1-(isobutylamino)-3-methyl-1-oxobutan-2-yl)-2,7-dimethyloctanamide], the half-maximal inhibitory concentration (IC50) is 6 to 100 µM. The result for `Cc1csc(CC(C)C(=O)NC(CN)C(=O)NC(CC(C)C)C(O)CC(C)C(=O)NC(C(=O)NCC(C)C)C(C)C)n1` (centres unmarked) [5-(3-amino-2-(2-methyl-3-(4-methylthiazol-2-yl)propanamido)propanamido)-4-hydroxy-N-(1-(isobutylamino)-3-methyl-1-oxobutan-2-yl)-2,7-dimethyloctanamide] reads 6 to 100 µM.
